Measurements as given in patent publication US5719151A, “Substituted benzene compounds” (priority 1990, dated 1998).
Blank lines part the entries; values can stand above or below the compound they belong to.

Columns and labels:
[1] = molecular target: T1, poly(ADP-ribose)polymerase (Homo sapiens, UniProt P09874); assay: Determination of inhibitory effect on poly(ADP-ribose)polymerase (enzyme activity, Ki, Km); assay type: biochemical; conditions: for Ki: poly(ADP-ribose)polymerase, read-out: Ki (Inhibition Constant); for inhibition at 5 µM / inhibition at 1 µM / inhibition at 2.5 µM: read-out: Inhibitor Activity (%)
T1 sequence (P09874 whole entry): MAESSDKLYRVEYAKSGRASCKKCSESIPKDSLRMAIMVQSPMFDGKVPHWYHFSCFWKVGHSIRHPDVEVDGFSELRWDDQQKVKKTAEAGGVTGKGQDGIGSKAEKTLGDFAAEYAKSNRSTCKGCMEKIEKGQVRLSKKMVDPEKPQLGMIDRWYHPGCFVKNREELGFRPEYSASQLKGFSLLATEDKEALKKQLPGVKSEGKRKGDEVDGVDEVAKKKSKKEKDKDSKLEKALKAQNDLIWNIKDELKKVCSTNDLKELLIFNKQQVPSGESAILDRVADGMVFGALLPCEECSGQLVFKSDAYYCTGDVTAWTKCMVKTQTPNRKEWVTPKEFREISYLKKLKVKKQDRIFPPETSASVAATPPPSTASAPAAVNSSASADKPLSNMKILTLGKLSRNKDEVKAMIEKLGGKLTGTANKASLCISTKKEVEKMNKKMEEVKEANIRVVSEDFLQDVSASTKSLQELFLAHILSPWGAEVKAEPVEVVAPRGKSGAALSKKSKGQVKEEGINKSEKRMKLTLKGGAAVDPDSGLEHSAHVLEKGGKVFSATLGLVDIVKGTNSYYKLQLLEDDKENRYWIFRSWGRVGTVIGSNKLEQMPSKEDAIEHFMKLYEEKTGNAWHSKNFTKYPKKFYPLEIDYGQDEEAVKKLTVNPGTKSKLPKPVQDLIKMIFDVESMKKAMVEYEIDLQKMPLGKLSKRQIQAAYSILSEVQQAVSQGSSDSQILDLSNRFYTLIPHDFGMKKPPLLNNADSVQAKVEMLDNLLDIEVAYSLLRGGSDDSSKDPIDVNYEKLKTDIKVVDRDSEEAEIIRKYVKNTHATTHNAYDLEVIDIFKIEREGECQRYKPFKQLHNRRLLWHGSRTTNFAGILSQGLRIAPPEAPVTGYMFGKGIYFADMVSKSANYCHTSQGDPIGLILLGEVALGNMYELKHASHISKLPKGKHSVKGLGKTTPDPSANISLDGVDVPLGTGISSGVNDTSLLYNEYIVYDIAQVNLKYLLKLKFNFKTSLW
Method: The enzyme activity was assayed by standard procedures (Murray, B. et al., Mutation Research (1986) 165:191-198). This reference also describes the estimation of the Km (Michaelis Constant) values. The estimation of the Ki (inhibitory constant) values was performed by calculating the Km value in the presence or absence of known concentrations of the enzyme inhibitor. Standard biochemical calculations were then used to calculate the Ki value. The smaller K1 values indicate stronger inhibition. The degree of enzyme inhibition shown in the Table was estimated by measuring the enzyme activity in the presence and absence of the indicated concentrations of inhibitor.

[2] = tested on: nuclear poly(ADP-Ribose)polymerase; conditions: Oikawa 1980; Lindahl-Kiessling & Shall 1987; cited from earlier work
[3] = molecular target: T1, poly(ADP-ribose)polymerase; conditions: Farzeneh 1988, cited from earlier work
[4] = molecular target: T1, poly(ADP-ribose)polymerase; assay: Formation of covalent compounds (with the enzyme); assay type: biochemical; conditions: for covalent compound with the enzyme: specific covalent inhibition
[5] = tested on: Trypanosoma brucei rhodesiense; assay: Growth of Trypanosoma brucei rhodesiense in axenic culture (growth inhibition); assay type: cell-based
Method: 1. TRYPANOSOMES: Stabilates of two clones, GUP 2889 and GUP 2814 were used.
Prior to propagation in vitro cell free culture conditions the parasites from stabilates were expanded in CD1 (8-9 week old) female mice. Infected mouse blood obtained by cardiac puncture in EMEM* with 20 U/ml heparin was used for the preparation of blood smears for immunofluorescence analysis.
Antibody mediated lysis of a specific VAT of bloodstream form trypanosomes was performed by incubating an appropriate aliquot of a recently prepared trypanosome suspension at room temperature for 1 hour, in appropriately diluted specific antibody and guinea pig complement. The trypanosomes were observed and counted with inverted phase-contrast microscopy at a magnification of 150× to check for viability and to observe lysed trypanosomes, which appeared stumpy and vacuolated.
Cultures were initiated with aliquots of the above prepared trypanosome suspension. Duplicate T25 flasks, with 10 ml of medium were prepared for each experimental parameter examined. In each experiment the trypanosome density was determined at the initiation of the culture and at the end of the axenic culture period (usually after 18-24 hours) using a Neubaurer haemocytometer.
The instantaneous rate of switching/cell/generation, σi, has been calculated. These values of σ are estimates of the per capita rate for switching to minor VATs. However, these estimates have been made in populations manipulated to consist of a major VAT, the prevalence of which is much higher than that of minor VATs; switching from minor to major VATs has therefore been assumed to be negligible, as has interswitching between minor VATs. Growth rates, r, have been expressed as population doubling times Td, where Td=loge2/r. Switching rates values are presented in the tables as finite, of, rate estimates.
Two clones of Trypanosoma brucei rhodesiense, GUP 2889 and […] were initiated in culture with viable trypanosomes after in vitro trypanolysis of heterotype VAT 1.22 with GUPM 27.1 monoclonal antibody. Viable populations of these trypanosomes were incubated with various concentrations of the poly(ADP-Ribose)polymerase inhibitors. The effect of each concentration of inhibitor was tested in duplicate in T25 culture flasks set up for the axenic culture inhibition experiments. Growth was monitored after 24 hours of incubation at 37° C. in 4-5% CO2 in air. Relative growth inhibition and frequency of antigenic switching of were calculated.
In this assay a continuously growing bloodstream form trypanosome population was incubated in serial inhibitor dilutions in T25 culture flasks using an inoculum of 2×10^4 ·1×10^5 trypanosomes per ml. After an incubation period of 24-48 hours in axenic culture at 37° C. in a 4-5% CO2 incubator, trypanosomes were counted using a haemocytometer and growth inhibition was determined based on the number of generations (kt) of inhibitor treated cultures compared to controls. […] Growth is reduced by up to 17% when 3-N-formylluminol(3-N-FL) is present in the concentration range of 50-400 μM, Table 7.

[6] = molecular target: T1, poly(ADP-ribose)polymerase; conditions: X-ray or bleomycin exposure; cited from earlier work
[7] = tested on: NC(=O)c1ccc[n+]([C@@H]2O[C@H](COP(=O)([O-])OP(=O)(O)OC[C@H]3O[C@@H](n4cnc5c(N)ncnc54)[C@H](O)[C@@H]3O)[C@@H](O)[C@H]2O)c1; assay: Determination of inhibitory effect on poly(ADP-ribose)polymerase (enzyme activity, Ki, Km); assay type: biochemical; conditions: other: same assay as Table 5

Ki [1]: 3200 ± 410 nM
Compound: CC(=O)Nc1cccc(C(N)=O)c1 [3-acetylaminobenzamide, reference compound]

Compound: NC(=O)c1cccc(N)c1 [3-aminobenzamide]
spontaneous sister chromatid exchanges [2]: large increase in spontaneous sister chromatid exchanges

Compound: COc1cccc(C(N)=O)c1 [3-methoxybenzamide]
integration of foreign DNA into the genome ([3]; non-homologous/illegitimate DNA recombination): blocked the integration of foreign DNA into the genome
uptake and expression of foreign DNA ([3]; introduced via plasmids): not affected

Ki [1]: 2490 ± 300 nM
Compound: CCC(=O)Nc1cccc(C(N)=O)c1 [3-propionylaminobenzamide, reference compound]

Compound: C=CC(=O)Nc1cccc(C(N)=O)c1 [Compound 4, 3-propenoylaminobenzamide]
covalent compound with the enzyme [4]: act by forming a covalent compound with the enzyme specifically and thus inhibit the enzyme

Compound: NC(=O)c1cccc(NC(=O)CCCl)c1 [Compound 7]
covalent compound with the enzyme [4]: act by forming a covalent compound with the enzyme specifically and thus inhibit the enzyme

inhibition at 5 µM [1]: 61%
Compound: NC(=O)Nc1cccc(C(N)=O)c1 [Compound 8, 3-ureidobenzamide]

inhibition at 5 µM [1]: 61%
Compound: CNC(=O)Nc1cccc(C(N)=O)c1 [Compound 9, 3-methylureidobenzamide]

enzyme inhibition (in words) [1]: not enzyme inhibitors
ability to form covalent compounds [4]: form covalent compounds
Compound: C=CC(=O)Nc1cccc(C(=O)O)c1 [Compound 12, 3-propenoylaminobenzoic acid]

Compound: NC(=O)c1cccc(NC(=O)CCl)c1 [Compound 14, 3-chloroacetylaminobenzamide]
covalent compound with the enzyme [4]: act by forming a covalent compound with the enzyme specifically and thus inhibit the enzyme

Compound: NC(=O)c1cccc(NC(=O)CBr)c1 [Compound 15, 3-bromoacetylaminobenzamide]
covalent compound with the enzyme [4]: act by forming a covalent compound with the enzyme specifically and thus inhibit the enzyme

Compound: NC(=O)c1cccc(NC(=O)CCBr)c1 [Compound 16]
covalent compound with the enzyme [4]: act by forming a covalent compound with the enzyme specifically and thus inhibit the enzyme

Compound: CN(N=O)C(=O)Nc1cccc(C(N)=O)c1 [Compound 19, 3(N-methyl,N-nitroso ureido)benzamide]
covalent compound with the enzyme [4]: act by forming a covalent compound with the enzyme specifically and thus inhibit the enzyme

Compound: CN(N=O)C(=O)Nc1ccc(C(N)=O)cc1 [Compound 20, 4(N-methyl,N-nitroso ureido)benzamide]
enzyme inhibition (in words) [1]: not enzyme inhibitors
ability to form covalent compounds [4]: form covalent compounds

Compound: CCOC(=O)c1cccc(NC(=O)N(C)N=O)c1 [Compound 21, Ethyl,3-(N-methyl,N-nitrosoureido)benzoate]
enzyme inhibition (in words) [1]: not enzyme inhibitors
ability to form covalent compounds [4]: form covalent compounds

Compound: O=CNc1cccc2c(=O)[nH][nH]c(=O)c12 [Compound 22, 5-formylamino-2,3-dihydro-1,4-phthalazinedione]
inhibition at 1 µM [1]: 54%
inhibition at 2.5 µM [1]: 71%
Ki [1]: 518 ± 40 nM
growth reduced by up to ([5]; 50-400 μM): up to 17%
activity at 50 µM ([5]; Trypanosoma brucei, RHODESIENSE, 50 μM, n = 8, control 1.00, read-out: Relative Growth Rate (S.D., n)): 121 ± 13%
activity at 100 µM ([5]; Trypanosoma brucei, RHODESIENSE, 100 μM, n = 8, control 1.00, read-out: Relative Growth Rate (S.D., n)): 91 ± 22%
activity at 250 µM ([5]; Trypanosoma brucei, RHODESIENSE, 250 μM, n = 8, control 1.00, read-out: Relative Growth Rate (S.D., n)): 83 ± 42%
activity at 400 µM ([5]; Trypanosoma brucei, RHODESIENSE, 400 μM, n = 4, control 1.00, read-out: Relative Growth Rate (S.D., n)): 85 ± 4%

inhibition at 5 µM [1]: 32%
Compound: N=C(N)Nc1cccc(C(N)=O)c1 [Compound 26, 3-(guanidino)benzamide]

inhibition at 1 µM [1]: 47%
inhibition at 2.5 µM [1]: 71%
inhibition at 5 µM [1]: 82%
Compound: O=c1[nH]nc(O)c2cccc(O)c12 [Compound 27, 1,5-dihydroxy-3-hydro-4-phthalazinone]

Compound: NC(=O)c1cccnc1 [nicotinamide]
recovery of the damaged cells [6]: inhibit recovery of the damaged cells

Compound: poly(ADP-ribose)polymerase (Homo sapiens)
Km [7]: 100 ± 13.7 µM
